This passage reports inhibition in vivo and minimal effective concentration results from patent publication US10570129B2 (Zoetis Services LLC, priority 2015, dated 2020).

Test [1] relates to Trichostrongylus colubriformis. In words: Jird efficacy model. Type of test: in vivo. As to conditions: Trichostrongylus colubriformis, sc, 96 h, read-out: Jird % (percentage efficacy).
A further test relates to D. immitis microfilariae. In words: Dirofilaria immitis, microfilariae (DiMF) in vitro motility assay. Conditions: Dirofilaria immitis, 72 h, read-out: DiMF minimally effective dose (MEC). The format is cell-based.
The test system of a further test is Haemonchus contortus L3. The test is described as follows: microbe, parasite or virus in culture. Type of test: cell-based. As to conditions: Haemonchus contortus, 96 h, read-out: HcL3 Minimal Effective Concentration (MEC).

Each structure is given as a SMILES string.

Consider `O=C(NCc1ccnc(Cl)c1)n1c2c(c3cc(OC(F)(F)F)ccc31)CN(C/C=C/c1ccc(Cl)cc1)CC2` [Example 391, (E)-2-(3-(4-chlorophenyl)allyl)-N-((2-chloropyridin-4-yl)methyl)-8-(trifluoromethoxy)-1,2,3,4-tetrahydro-5H-pyrido[4,3-b]indole-5-carboxamide], for which the inhibition in vivo at 10 mg/kg in test [1] was 100%. Besides, the results for the minimal effective concentration in the test on D. immitis microfilariae and in the test on Haemonchus contortus L3 were 32.1 µM and 1 µM, respectively.
On the same counts, the results for `N#Cc1ccc2c3c(n(C(=O)NCc4ccnc(Cl)c4)c2c1)CCN(C/C=C/c1cc(F)c(F)c(F)c1)C3` [Example 29, (E)-N-((2-chloropyridin-4-yl)methyl)-7-cyano-2-(3-(3,4,5-trifluorophenyl)allyl)-1,2,3,4-tetrahydro-5H-pyrido[4,3-b]indole-5-carboxamide] are 99%, 1.8 µM and 0.7 µM.
Take `N#Cc1ccc(/C=C/CN2CCc3c(c4cc(Br)ccc4n3C(=O)NCc3ccnc(Cl)c3)C2)cc1` [Example 184, (E)-8-bromo-N-((2-chloropyridin-4-yl)methyl)-2-(3-(4-cyanophenyl)allyl)-1,2,3,4-tetrahydro-5H-pyrido[4,3-b]indole-5-carboxamide]: the inhibition in vivo at 10 mg/kg in test [1] worked out at 100%. Moreover, the minimal effective concentration was 57.4 µM in the test with D. immitis microfilariae and 1 µM in the test on Haemonchus contortus L3.
For `O=C(NCc1ccnc(F)c1)n1c2c(c3cc(C(F)(F)F)ccc31)CN(C/C=C/c1ccc(F)c(Cl)c1)CC2` [Example 418, (E)-2-(3-(3-chloro-4-fluorophenyl)allyl)-N-((2-fluoropyridin-4-yl)methyl)-8-(trifluoromethyl)-1,2,3,4-tetrahydro-5H-pyrido[4,3-b]indole-5-carboxamide], in test [1], the inhibition in vivo at 10 mg/kg was 95%. Also, the minimal effective concentration stood at 18.2 µM in the test on D. immitis microfilariae and 3.3 µM in the test on Haemonchus contortus L3.
Turning to `N#Cc1ccc2c3c(n(C(=O)NCc4ccnc(Cl)c4)c2c1)CCN(C/C=C/c1c(F)cc(Cl)cc1F)C3` [Example 6, (E)-2-(3-(4-chloro-2,6-difluorophenyl)allyl)-N-((2-chloropyridin-4-yl)methyl)-7-cyano-1,2,3,4-tetrahydro-5H-pyrido[4,3-b]indole-5-carboxamide], the inhibition in vivo at 10 mg/kg in test [1] amounted to 99%. In addition, the minimal effective concentration amounted to 18.2 µM in the test with D. immitis microfilariae and 2.4 µM in the test with Haemonchus contortus L3.
For `N#Cc1ccc(/C=C/CN2CCc3c(c4cc(C(F)(F)F)ccc4n3C(=O)NCc3ccnc(F)c3)C2)cc1` [Example 420, (E)-2-(3-(4-cyanophenyl)allyl)-N-((2-fluoropyridin-4-yl)methyl)-8-(trifluoromethyl)-1,2,3,4-tetrahydro-5H-pyrido[4,3-b]indole-5-carboxamide], the inhibition in vivo at 10 mg/kg in test [1] was determined as 100%. The minimal effective concentration in the test on D. immitis microfilariae was found to be 14.1 µM; with Haemonchus contortus L3, 2.8 µM.
In the case of `O=C(NCc1ccnc(F)c1)n1c2c(c3ccc(OC(F)(F)F)cc31)CN(C/C=C/c1cc(F)c(F)c(F)c1)CC2` [Example 377, (E)-N-((2-fluoropyridin-4-yl)methyl)-7-(trifluoromethoxy)-2-(3-(3,4,5-trifluorophenyl)allyl)-1,2,3,4-tetrahydro-5H-pyrido[4,3-b]indole-5-carboxamide], the inhibition in vivo at 10 mg/kg in test [1] was 99%. Further, the minimal effective concentration is 5.7 µM with D. immitis microfilariae and 0.3 µM in the test on Haemonchus contortus L3.
For the compound `N#Cc1ccc(/C=C/CN2CCc3c(c4cc(C#N)ccc4n3C(=O)NCc3ccnc(F)c3)C2)cc1` [Example 120, (E)-8-cyano-2-(3-(4-cyanophenyl)allyl)-N-((2-fluoropyridin-4-yl)methyl)-1,2,3,4-tetrahydro-5H-pyrido[4,3-b]indole-5-carboxamide], the figures for the minimal effective concentration in the test with D. immitis microfilariae and in the test on Haemonchus contortus L3 were over 100 µM and 0.5 µM, respectively.
In the case of `N#Cc1ccc(/C=C/CN2CCc3c(c4cc(Cl)ccc4n3C(=O)NCc3ccnc(Cl)c3)C2)cc1F` [Example 235, (E)-8-chloro-N-((2-chloropyridin-4-yl)methyl)-2-(3-(4-cyano-3-fluorophenyl)allyl)-1,2,3,4-tetrahydro-5H-pyrido[4,3-b]indole-5-carboxamide], the minimal effective concentration with D. immitis microfilariae was over 100 µM; with Haemonchus contortus L3 it was 0.1 µM.
For the compound `NC(=O)c1ccc2c(c1)c1c(n2C(=O)NCc2ccnc(Cl)c2)CCN(C/C=C/c2ccc(Cl)c(F)c2)C1` [Example 467, (E)-2-(3-(4-chloro-3-fluorophenyl)allyl)-N^5-((2-chloropyridin-4-yl)methyl)-1,2,3,4-tetrahydro-5H-pyrido[4,3-b]indole-5,8-dicarboxamide], the minimal effective concentration in the test on D. immitis microfilariae was 1 µM; in the test on Haemonchus contortus L3, over 100 µM.
Taken in the same sequence, the figures for `Cc1cccc2c1c1c(n2C(=O)NCc2ccnc(Cl)c2)CCN(C/C=C/c2ccc(F)cc2)C1` [Example 149, (E)-N-((2-chloropyridin-4-yl)methyl)-2-(3-(4-fluorophenyl)allyl)-9-methyl-1,2,3,4-tetrahydro-5H-pyrido[4,3-b]indole-5-carboxamide] were 10 µM and 4.4 µM.
Taken in the same sequence, the figures for `N#Cc1ccc(/C=C/CN2CCc3c(c4ccc(OC(F)(F)F)cc4n3C(=O)NCc3ccnc(Cl)c3)C2)cc1F` [Example 345, (E)-N-((2-chloropyridin-4-yl)methyl)-2-(3-(4-cyano-3-fluorophenyl)allyl)-7-(trifluoromethoxy)-1,2,3,4-tetrahydro-5H-pyrido[4,3-b]indole-5-carboxamide] were 18.2 µM and 0.5 µM.
On the same counts, the results for `O=C(NCc1ccnc(Cl)c1)n1c2c(c3c(C(F)(F)F)cccc31)CN(C/C=C/c1ccc(Cl)c(Cl)c1)CC2` [Example 159, (E)-N-((2-chloropyridin-4-yl)methyl)-2-(3-(3,4-dichlorophenyl)allyl)-9-(trifluoromethyl)-1,2,3,4-tetrahydro-5H-pyrido[4,3-b]indole-5-carboxamide] are 10 µM and 18.2 µM.
`Cc1ccc2c(c1)c1c(n2C(=O)NCc2ccnc(Cl)c2)CCN(C/C=C/c2ccc(OC(F)(F)F)cc2)C1` [Example 434, (E)-N-((2-chloropyridin-4-yl)methyl)-8-methyl-2-(3-(4-(trifluoromethoxy)-phenyl)allyl)-1,2,3,4-tetrahydro-5H-pyrido[4,3-b]indole-5-carboxamide]: the minimal effective concentration with D. immitis microfilariae was 5.7 µM; in the test on Haemonchus contortus L3, 3.3 µM.
As to `O=C(NCc1ccnc(Cl)c1)n1c2c(c3cc4c(cc31)COC4)CN(C/C=C/c1ccc(Cl)cc1)CC2` [Example 480, (E)-8-(3-(4-chlorophenyl)allyl)-N-((2-chloropyridin-4-yl)methyl)-1,3,6,7,8,9-hexahydro-5H-furo[3,4-f]pyrido[4,3-b]indole-5-carboxamide], the values for the minimal effective concentration in the test on D. immitis microfilariae and with Haemonchus contortus L3 were 3.3 µM and 0.3 µM, respectively.
`O=C(NCc1ccnc(F)c1)n1c2c(c3cc(F)c(Cl)cc31)CN(C/C=C/c1ccc(F)cc1F)CC2` [Example 312, (E)-7-chloro-2-(3-(2,4-difluorophenyl)allyl)-8-fluoro-N-((2-fluoropyridin-4-yl)methyl)-1,2,3,4-tetrahydro-5H-pyrido[4,3-b]indole-5-carboxamide]: the minimal effective concentration in the test with D. immitis microfilariae was found to be 1 µM; with Haemonchus contortus L3 it was 0.1 µM.
For `O=C(NCc1ccnc(Cl)c1)n1c2c(c3cc(Cl)ccc31)CN(C/C=C/c1ccc(F)cc1)CC2` [Example 244, (E)-8-chloro-N-((2-chloropyridin-4-yl)methyl)-2-(3-(4-fluorophenyl)allyl)-1,2,3,4-tetrahydro-5H-pyrido[4,3-b]indole-5-carboxamide], the results for the minimal effective concentration with D. immitis microfilariae and with Haemonchus contortus L3 were 10 µM and 0.7 µM, respectively.
With `O=C(NCc1ccnc(Cl)c1)n1c2c(c3cc(OC(F)(F)F)ccc31)CN(C/C=C/c1ccc(F)cc1)CC2` [Example 393, (E)-N-((2-chloropyridin-4-yl)methyl)-2-(3-(4-fluorophenyl)allyl)-8-(trifluoromethoxy)-1,2,3,4-tetrahydro-5H-pyrido[4,3-b]indole-5-carboxamide], the values for the minimal effective concentration in the test on D. immitis microfilariae and in the test with Haemonchus contortus L3 were 1.5 µM and 0.4 µM, respectively.
For `O=C(NCc1ccnc(F)c1)n1c2c(c3cc(-c4cccc(Cl)c4)ccc31)CN(C/C=C/c1ccc(Cl)cc1)CC2` [Example 462, (E)-8-(3-chlorophenyl)-2-(3-(4-chlorophenyl)allyl)-N-((2-fluoropyridin-4-yl)methyl)-1,2,3,4-tetrahydro-5H-pyrido[4,3-b]indole-5-carboxamide], the minimal effective concentration in the test on D. immitis microfilariae and with Haemonchus contortus L3 was over 100 µM in each case.
On to `O=C(NCc1ccnc(Cl)c1)n1c2c(c3cc4c(cc31)COC4)CN(C/C=C/c1ccc(C(F)(F)F)cc1)CC2` [Example 482, (E)-N-((2-chloropyridin-4-yl)methyl)-8-(3-(4-(trifluoromethyl)phenyl)allyl)-1,3,6,7,8,9-hexahydro-5H-furo[3,4-f]pyrido[4,3-b]indole-5-carboxamide], for which the minimal effective concentration in the test on D. immitis microfilariae was found to be 3.3 µM; with Haemonchus contortus L3, 1.8 µM.
Turning to `O=C(NCc1ccnc(Cl)c1)n1c2c(c3cccc(Cl)c31)CN(C/C=C/c1ccc(C(F)(F)F)cn1)CC2` [Example 266, (E)-6-chloro-N-((2-chloropyridin-4-yl)methyl)-2-(3-(5-(trifluoromethyl)-pyridin-2-yl)allyl)-1,2,3,4-tetrahydro-5H-pyrido[4,3-b]indole-5-carboxamide], the minimal effective concentration was 18.2 µM in the test with D. immitis microfilariae and over 100 µM with Haemonchus contortus L3.
Turning to `N#Cc1cc2c(cc1OC(F)(F)F)c1c(n2C(=O)NCc2ccnc(Cl)c2)CCN(C/C=C/c2ccc(Cl)cc2)C1` [Example 502, (E)-2-(3-(4-chlorophenyl)allyl)-N-((2-chloropyridin-4-yl)methyl)-7-cyano-8-(trifluoromethoxy)-1,2,3,4-tetrahydro-5H-pyrido[4,3-b]indole-5-carboxamide], the minimal effective concentration in the test on D. immitis microfilariae was over 100 µM; in the test on Haemonchus contortus L3, 18.2 µM.
